Source: patent publication US9353075B2, “Disubstituted beta-lactones as inhibitors of N-acylethanolamine acid amidase (NAAA)” (The Regents of the University of California, priority 2011, dated 2016)

Key:
Acid Ceramidase (AC) = Acid Ceramidase (AC) (Rattus norvegicus (Rat), UniProt Q6P7S1); experiment: Acid ceramidase inhibition, recombinant rat AC, LC-MS; format: biochemical; conditions: for inhibition at 10 µM: read-out: r-AC % inhib. @ 10 μM; for IC50: read-out: r-AC IC50; for inhibition at 0.3 µM: read-out: r-AC % inhib. @ 0.3 μM
Procedure: The PCR (High Fidelity PCR Master, Roche) product was subcloned into a pEF6-[…] vector (Invitrogen) to construct a mammalian expression vector encoding […]-tagged rat AC. HEK293 cells were transfected with pEF6-rAC-[…] using Super-Fect reagent (Qiagen) and screened with G418 (0.3 mg/mL). Cells were suspended in 20 mM Tris HCl (pH 7.5) containing 0.32M sucrose, sonicated and centrifuged at 800×g for 15 minutes at 4° C. The supernatants were centrifuged again at 12,000×g for 30 minutes at 4° C. The pellets were suspended in phosphate-buffered saline (PBS) and subjected to 2 freeze-thaw cycles at -80° C. The suspensions were centrifuged at 105,000×g for 1 hour at 4° C. The supernatants containing recombinant AC were kept at -80° C. until use. Protein concentration was measured using the bicinchoninic acid (BCA) assay (Pierce). […] Reactions were stopped by addition of a mixture of chloroform/methanol (2:1, vol/vol) containing 1 nmol of heptadecanoic acid (HDA; NuChek Prep). […] HDA was eluted on an XDB Eclipse C18 column isocratically at 2.2 mL/min for 1 minute with a solvent mixture of 95% methanol and 5% water, both containing 0.25% acetic acid and 5 mM ammonium acetate. The column temperature was 50° C. Electrospray ionization (ESI) was in the negative mode, capillary voltage as 4 kV, and fragmentor voltage was 100 V. N2 was used as drying gas at a flow rate of 13 L/min and a temperature of 350° C. Nebulizer pressure was set at 60 psi. We monitored [M-H]- in the selected-ion monitoring (SIM) mode using HDA as internal standard. Calibration curves were generated using commercial lauric acid (Nu-Chek Prep; m/z=199).

h-NAAA = h-NAAA (Homo sapiens (Human), UniProt Q02083); experiment: UPLC/MS h-NAAA assay; format: biochemical
Procedure: NAAA protein preparation (10 μg) was pre-incubated with various concentrations of test compound or vehicle control in 100 mM NaH2PO4, 100 mM Tri Sodium Citrate Dehydrate, 0.1% Triton-X 100, 3 mM DTT, pH 4.5 for 30 min at 37° C. Duplicate samples were then incubated with 50 μM C17:1 10-cis-heptadecenoylethanolamide (Avanti Polar Lipids, Alabaster, Ala.—USA) at 37° C. for 30 minutes. The reaction was terminated by the addition of 0.2 mL of cold methanol containing 1 nmol of heptadecanoic acid (NuChek Prep, Elysian, Minn.—USA) as internal standard. Samples were then analyzed by UPLC/MS. Heptadecenoic and heptadecanoic acids were eluted on an Acquity UPLC BEH C18 column (50 mm length, 2.1 mm i.d., 1.7 μm pore size, Waters) isocratically at 0.5 mL/min for 1.5 min with a solvent mixture of 95% methanol and 5% water, both containing 0.25% Acetic Acid and 5 mM Ammonium Acetate. The column temperature was 40° C. Electrospray ionization was in the negative mode, capillary voltage was 2.7 kV, cone voltage was 45 V, extractor voltage was 3 V. The source temperature was 150° C. with a desolvation temperature of 400° C. N2 was used as drying gas at a cone flow of 100 L/hour and a desolvation flow of […]. The [M−H]-ion was monitored in the selected-ion monitoring mode (m/z values: heptadecenoic acid 267.37, heptadecanoic acid 269.37). Calibration curves were generated using commercial heptadecenoic acid (NuCheck Prep) Inhibition of NAAA activity was calculated as reduction of heptadecenoic acid in the samples compared to vehicle controls. IC50 values were calculated by non-linear regression analysis of log [concentration]/inhibition curves using GraphPad Prism 5 (GraphPad Software Inc., CA—USA) applying a standard slope curve fitting.

r-NAAA = r-NAAA (Rattus norvegicus (Rat), UniProt Q5KTC7); experiment: r-NAAA inhibition, rat lung lysosomal NAAA preparation, UPLC/MS; format: biochemical
Procedure: Lysosomal NAAA protein preparation were obtained by homogenizing male Sprague-Dawley rat lungs (Charles River) in 20 mM Tris-HCl buffer pH 7.4 containing 0.32M sucrose. Samples were centrifuged at 800×g for 15 minutes at 4° C. Supernatants were then centrifuged at 12,000 g for 30 minutes at 4° C. Pellets were then resuspended in PBS pH 7.4 and subjected to a freeze/thaw cycle at −80° C. The suspension was finally centrifuged at 105,000×g for 1 hour at 4° C. The supernatant was then used in the enzymatic assay.
NAAA protein preparation was pre-incubated with various concentrations of test compounds or vehicle control in 100 mM NaH2PO4/Citrate buffer, 1% Triton-X, 3 mM DTT (pH 4.5) for 30 minutes at 37° C. Samples were then incubated with heptadecenoylethanolamide (50 μM, Avanti Polar Lipids) at 37° C. for 30 min. The reaction was terminated by addition of cold methanol containing heptadecanoic acid (NuCheck Prep) as internal standard. Samples were then analyzed by UPLC/MS (Acquity, Waters). Heptadecenoic and heptadecanoic acids were eluted on an Acquity UPLC BEH C18 column (50 mm length, 2.1 mm i.d., 1.7 μm pore size, Waters) isocratically at 0.5 mL/min for 1.5 min with a solvent mixture of 95% methanol and 5% water, both containing 0.25% Acetic Acid and 5 mM Ammonium Acetate. The column temperature was 40° C. Electrospray ionization was in the negative mode, capillary voltage was 0.5 kV, cone voltage was […], desolvation temperature was 500° C. N2 was used as drying gas at a flow rate of 1000 L/hour and a temperature of 500° C. The [M−H]^− ion was monitored in the selected-ion monitoring mode (m/z values: heptadecenoic acid 267.37, heptadecanoic acid 269.37). Calibration curves were generated using commercial heptadecenoic acid (NuCheck Prep). Inhibition of NAAA activity was calculated as reduction of heptadecenoic acid in the samples compared to vehicle controls. IC50 values were calculated by non-linear regression analysis of log [concentration]/inhibition curves using GraphPad Prism 5 (GraphPad Software Inc., CA—USA) applying a standard slope curve fitting.

DNFB-induced dermatitis = experiment: DNFB contact dermatitis in mice, ear thickness; format: in vivo, mouse; conditions: mice, PEG 400 solution, each day for 7 days; (S)-OOPP 0.1-10% w/v, compound 6 0.1%
Procedure: 2,4-dinitrofluorobenzene (DNFB) (Sigma-Aldrich, Italy) was dissolved in acetone. On day 1 and 2, mice (CD1, 25-30 g, Charles River, Calco, Italy) were sensitized on the skin of the abdomen with hapten (20 μL of 0.5% DNFB). After 5 days, on day 7, mice were challenged with hapten (20 μL of 0.2% DNFB) in the earlobe and treated with drugs to be tested. Control group received the vehicle used to dissolve drugs. Mice (five per group) were placed in a plastic cage. On day 8, ear thickness was determined after challenge using a caliper. Results are expressed as absolute ear thickness.
Fresh drug suspensions of compound 6 were prepared immediately before use in a vehicle consisting of petrolatum plus 5% lauric acid and given in a volume of 20 μL/mouse. Mice were treated with different concentrations of compound 6 or vehicle together with DNFB challenge on […].
Compound 6 and the reported β-lactone NAAA inhibitor (S)-OOPP (Solorzano et al., Proceedings of the National Academy of Science USA 2009, 106, 20966-20971; Solorzano et al., Journal of Medicinal Chemistry 2010, 53, 5770-5781) were tested in this model for their contact sensitivity response. Fresh drug solutions of (S)-OOPP and compound 6 were prepared immediately before use in polyethylene glycol 400 (PEG 400) and given in a volume of 20 μL/ear. Mice were treated with different concentrations of (S)-OOPP, 0.1% compound 6 or vehicle each day for 7 days. Ear thickness was determined on day 0 and every day before challenge using a caliper. Results are expressed as absolute ear thickness.
The methods included the following. Dermatitis was produced in mice using 2-4 dinitrofluorobenzene (DNFB) as described by Buckley and Nijkamp (1994), Am J Respir Grit Care Med 149:400-7. Mice were sensitized on two consecutive days with a 0.5% DNFB solution applied to the shaved abdomen. At day 8, the ears were challenged with a 0.2% DNFB solution. Ear thickness was determined by using a micrometer. Scratching was evaluated as number of episodes per 60 minutes period. Data were analysed by ANOVA followed by the Bonferroni's test. See also Hargreaves K, et al (1988), Pain 32: 77-88 for related information.

h-NAAA, sequence (Q02083 29-359): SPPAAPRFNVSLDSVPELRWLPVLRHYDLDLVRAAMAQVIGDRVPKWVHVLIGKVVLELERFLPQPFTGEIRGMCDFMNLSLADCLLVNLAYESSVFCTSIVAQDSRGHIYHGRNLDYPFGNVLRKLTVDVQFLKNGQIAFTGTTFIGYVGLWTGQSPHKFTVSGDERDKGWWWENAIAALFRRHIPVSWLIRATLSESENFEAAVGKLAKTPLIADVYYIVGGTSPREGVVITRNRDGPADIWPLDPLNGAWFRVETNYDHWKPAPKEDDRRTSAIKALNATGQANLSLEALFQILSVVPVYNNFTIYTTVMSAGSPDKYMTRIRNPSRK
r-NAAA, sequence (Q5KTC7 34-362): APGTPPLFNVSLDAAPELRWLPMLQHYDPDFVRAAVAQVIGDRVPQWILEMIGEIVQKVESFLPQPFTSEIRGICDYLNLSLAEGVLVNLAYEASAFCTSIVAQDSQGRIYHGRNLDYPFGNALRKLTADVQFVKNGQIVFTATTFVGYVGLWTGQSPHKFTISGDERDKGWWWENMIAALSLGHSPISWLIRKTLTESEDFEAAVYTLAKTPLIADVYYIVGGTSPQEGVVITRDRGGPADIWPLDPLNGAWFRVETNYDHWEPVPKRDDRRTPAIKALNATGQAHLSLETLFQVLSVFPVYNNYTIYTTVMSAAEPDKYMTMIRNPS
Acid Ceramidase (AC), sequence (Q6P7S1 21-394): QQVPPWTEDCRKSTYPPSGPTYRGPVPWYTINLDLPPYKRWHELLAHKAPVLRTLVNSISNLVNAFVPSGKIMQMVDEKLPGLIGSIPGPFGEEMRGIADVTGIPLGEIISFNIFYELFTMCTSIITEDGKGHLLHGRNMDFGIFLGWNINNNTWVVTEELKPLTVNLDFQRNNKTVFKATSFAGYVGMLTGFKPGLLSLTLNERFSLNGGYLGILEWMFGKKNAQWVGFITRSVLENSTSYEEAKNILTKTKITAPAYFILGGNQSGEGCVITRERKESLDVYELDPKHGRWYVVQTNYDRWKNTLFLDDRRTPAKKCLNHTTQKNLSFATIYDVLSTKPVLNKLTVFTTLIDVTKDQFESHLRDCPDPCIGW

SMILES | inhibition at 10 µM (Acid Ceramidase (AC)) | IC50 (h-NAAA) | IC50 (r-NAAA) | Contact sensitivity response (ear swelling) (DNFB-induced dermatitis) | IC50 (Acid Ceramidase (AC)) | inhibition at 0.3 µM (Acid Ceramidase (AC))
CCCCCCC[C@H](C)OC(=O)N[C@H]1C(=O)O[C@H]1C [Example 7, [(1S)-1-methyloctyl]-N-[(2S,3R)-2-methyl-4-oxo-oxetan-3-yl]-carbamate] | 45% | 5 nM | 16 nM | – | – | –
O=C(CCc1ccccc1)N[C@H]1COC1=O [(S)-OOPP, N-[(3S)-2-oxo-3-oxetanyl]-3-phenylpropanamide, reference compound] | – | – | – | did not inhibit contact sensitivity response | – | –
O=C(N[C@H]1COC1=O)OCCCCCc1ccccc1 [drawing 83, reference compound] | – | – | 6850 nM | – | 1530 nM | –
CC(CCCCc1ccccc1)OC(=O)N[C@H]1C(=O)O[C@H]1C (mixture of isomers) [Example 22, [(1R) and (1S)-1-methyl-5-phenyl-pentyl]-N-[(2S,3R)-2-methyl-4-oxo-oxetan-3-yl]-carbamate] | – | 14 nM | 30 nM | – | – | < 10%
C[C@@H]1OC(=O)[C@@H]1NC(=O)OC(C)(C)CCCCc1ccccc1 [Example 25, (1,1-Dimethyl-5-phenyl-pentyl)-N-[(2S,3R)-2-methyl-4-oxo-oxetan-3-yl]-carbamate] | – | – | 310 nM | – | – | < 10%
CCCCCCCCOC(=O)N[C@H]1C(=O)O[C@H]1C [Example 2, Octyl-[(2S,3R)-2-methyl-4-oxooxetan-3-yl]-carbamate] | – | – | 30 nM | – | – | < 10%
C[C@@H]1OC(=O)[C@@H]1NC(=O)OCCCCCC1CCCCC1 [Example 35, 5-Cyclohexylpentyl-N-[(2S,3R)-2-methyl-4-oxo-oxetan-3-yl]-carbamate] | < 10% | 5 nM | 16 nM | – | – | –
C[C@@H]1OC(=O)[C@@H]1NC(=O)OCCCCc1ccccc1 [Example 5, 4-phenylbutyl-[(2S,3R)-2-methyl-4-oxooxetan-3-yl]-carbamate] | – | – | 390 nM | – | – | < 10%
C[C@@H]1OC(=O)[C@@H]1NC(=O)OCCCOCc1ccccc1 [Example 18, 3-Benzyloxypropyl-N-[(2S,3R)-2-methyl-4-oxo-oxetan-3-yl]-carbamate] | < 10% | 18 nM | 50 nM | – | – | –
C[C@@H]1OC(=O)[C@@H]1NC(=O)OC12CC3CC(CC(C3)C1)C2 [Example 12, Tricyclo[3.3.1.1^3,7]dec-1-yl [(2S,3R)-2-methyl-4-oxooxetan-3-yl]-carbamate] | – | 540 nM | 870 nM | – | – | –
C[C@@H]1OC(=O)[C@H]1NC(=O)OCCCCCc1ccccc1 [Example 32, 5-Phenylpentyl-N-[(2S,3S)-2-methyl-4-oxo-oxetan-3-yl]-carbamate] | – | – | 480 nM | – | 3800 nM | –
O=C(N[C@@H]1COC1=O)OCCCCCc1ccccc1 [reference compound] | – | – | 510 nM | – | 30000 ± 2500 nM | –
C[C@@H]1OC(=O)[C@@H]1NC(=O)OCc1ccc(-c2ccccc2)cc1 [Example 17, (4-phenylphenyl)methyl-N-[(2S,3R)-2-methyl-4-oxo-oxetan-3-yl]-carbamate] | 30% | 7 nM | 7 nM | – | – | –
